From patent US20080241115A1, “Use Of Mesenchymal Stem Cells Genetically Modified To Express A Suicide Gene For Treating A Cancer” (Ajou University Industry-Academic Cooperation Foundation, priority 2005, published 2008)

What was measured:
293T/CD cells = assay: Suicide effect of CD gene, MTT viability assay and phase contrast microscopy; assay type: cell-based
Description: (§1) Normal 293T cells and 293T/CD cells transformed with pMSCV-puro/CD prepared in Step 1 were plated at a density of 2,000 cells/well in a 24-well plate containing DMEM with 10% fetal bovine serum. After 24 hours, 5-FC was added to the cells at various concentrations (0-10 mM). The media was replaced with fresh medium containing 5-FC every 2 days for 1 week. […] The viability was estimated by measuring mitochondria NADPH activity by 3-(4,5-dimethyl-thiazol-2-yl)-2,5-diphenyltetrazolium bromide (MTT) assay. The cells were incubated in 200 μl of […] MTT (Sigma, U.S.A) in PBS for 4 hours. The solution was replaced with 200 μl of absolute dimethyl sulfoxide (DMSO, Sigma). After incubated at room temperature for 15 minutes, the absorbance at 540 nm was measured with an ELISA reader (Molecular Probe, U.S.A). The data in FIG. 4B are presented as averages ±S.E. with respect to that of the cells grown in the absence of 5-FC from 3 independent experiments.

293T cells = assay: Suicide effect control, MTT viability assay; assay type: cell-based; details: normal 293T cells, 1,000 μM 5-FC
Description: as §1

MSC cells = assay: Suicide effect control in MSCs, MTT assay; assay type: cell-based, human; details: up to 1,000 μM 5-FC, 2 weeks
Description: (§2) MSC/CD or MSC cells were plated in growth medium at a density of 5,000 cells/well in a 6-well plate one day before exposure to 5-FC. The medium was replaced every 2 days with fresh growth medium containing 0-10 mM 5-FC for 2 weeks. […] The viability was estimated by measuring mitochondria NADPH activity using MTT assay as mentioned above with 293T/CD cells. The data are presented as averages ±S.E with respect to that of the untreated cells from 3 independent experiments (FIG. 6B).

MSC/CD cells = assay: Suicide effect of CD gene in MSC/CD cells, MTT assay and light microscopy; assay type: cell-based, human
Description: CD-expressing retrovirus was used to deliver the CD gene into MSCs. MSCs obtained in Step 1 of Example 1 were grown in growth medium (DMEM containing 10% FBS, 100 units/ml penicillin and 100 μg/ml streptomycin) at 37° C. and 5% CO2 until 70% confluence. CD-expressing retrovirus prepared in Example 2 was added to the culture with 1:1 dilution in the growth medium in the presence of 8 μg/ml polybrene (Sigma) for 8 hours and in the fresh growth medium for 16 hours. After the retroviral transduction was repeated 2 more times, the cells were split into 1:3 in growth medium containing 4 μg/ml puromycin (Sigma) for 14 days. The survived cells were pooled, and used in the subsequent experiments.
as §2

U87 glioma cells = assay: Cytotoxic effect of 5-FU on glioma cells, MTT assay; assay type: cell-based; details: U87, 5-FU 1 week
Description: (§3) To verify that 5-FU produced by MSC/CD is sufficient to induce cell death in various glioma cells, C6 (KCLB No. 10107), U373 (KCLB No. 30017), U87 (KCLB No. 30014) cells were freshly obtained from KCLB (Korean cell line bank) and plated in 96-well plates in growth medium at a density of 100 cells/well, 100 cells/well, and 500 cells/well, respectively. After 24 hours, 5-FU was added to the cells at 0.01-100 μM. After 1 week, cell viability was estimated by MTT assay as described above.

C6 glioma cells = assay: as above; assay type: cell-based; details: C6, 5-FU 1 week
Description: as §3

U373 glioma cells = assay: as above; assay type: cell-based; details: U373, 5-FU 1 week
Description: as §3

SMILES | viability by phase contrast microscopy (293T/CD cells; 293T/CD cells, 1,000 μM 5-FC) | concentration from which cell death was detected (293T/CD cells; 293T/CD cells, 5-FC for 1 week, MTT) | IC50 (293T/CD cells; Homo sapiens, HEK-293T, 168 h, 293T/CD cells, 5-FC for 1 week, MTT, read-out: IC50 of cell death) | cell death (293T cells) | cell death (MSC cells) | IC50 (MSC/CD cells; Homo sapiens, 336 h, MSC/CD cells, 5-FC for 2 weeks, MTT, read-out: IC50 of cell death) | cell death by light microscopy (MSC/CD cells; MSC/CD cells, 1,000 μM 5-FC for 2 weeks) | concentration from which cell death was detected (MSC/CD cells; MSC/CD cells, 5-FC for 2 weeks, MTT) | IC50 (U87 glioma cells; Homo sapiens, U-87 MG, 168 h, read-out: IC50 of cell death) | concentration at which cell death reached plateau (U87 glioma cells) | concentration at which cell death reached plateau (C6 glioma cells) | IC50 (C6 glioma cells; C6 glioma, 168 h, read-out: IC50 of cell death) | IC50 (U373 glioma cells; Homo sapiens, U373 MG, 168 h, read-out: IC50 of cell death) | concentration at which cell death reached plateau (U373 glioma cells)
Nc1nc(=O)[nH]cc1F [5-FC, 5-fluorocytosine] | reduced | 10 µM | 296 µM | did not show cell death | did not show cell death | 332 µM | almost died | 100 µM | – | – | – | – | – | –
O=c1[nH]cc(F)c(=O)[nH]1 [5-FU, 5-fluorouracil] | – | – | – | – | – | – | – | – | 5.65 µM | 10 µM | 10 µM | 0.93 µM | 5.34 µM | 10 µM
